Experimental findings from publication PMC10743429, “Anti-Inflammatory Effects of Alphitolic Acid Isolated from Agrimonia coreana Nakai Extracts Are Mediated via the Inhibition of ICRAC Activity in T Cells” (International Journal of Molecular Sciences, 2023) are described below.

For the test, the target named is T1, ORAI1 (Homo sapiens, UniProt Q96D31).
T1 construct: ORAI1 transiently co-transfected with STIM1 in HEK293T cells; with STIM1
The test is described as follows: patch-clamp of ICRAC in HEK293T cells co-expressing ORAI1 and STIM1. It counts as cell-based.

As a reminder, the IC50 is the point on the concentration scale where inhibition reaches its midpoint. High values mean lower potency, low ones higher potency.

T1 sequence (Q96D31 whole entry): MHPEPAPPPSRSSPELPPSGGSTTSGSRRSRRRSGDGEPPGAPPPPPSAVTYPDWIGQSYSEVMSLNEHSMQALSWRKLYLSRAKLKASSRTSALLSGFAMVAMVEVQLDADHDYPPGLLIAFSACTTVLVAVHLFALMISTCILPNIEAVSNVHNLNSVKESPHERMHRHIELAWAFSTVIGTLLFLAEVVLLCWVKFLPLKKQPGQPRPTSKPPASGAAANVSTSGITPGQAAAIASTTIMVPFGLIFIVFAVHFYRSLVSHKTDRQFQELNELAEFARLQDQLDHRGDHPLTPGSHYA
T1 sequence (Q13586 23-685 partner): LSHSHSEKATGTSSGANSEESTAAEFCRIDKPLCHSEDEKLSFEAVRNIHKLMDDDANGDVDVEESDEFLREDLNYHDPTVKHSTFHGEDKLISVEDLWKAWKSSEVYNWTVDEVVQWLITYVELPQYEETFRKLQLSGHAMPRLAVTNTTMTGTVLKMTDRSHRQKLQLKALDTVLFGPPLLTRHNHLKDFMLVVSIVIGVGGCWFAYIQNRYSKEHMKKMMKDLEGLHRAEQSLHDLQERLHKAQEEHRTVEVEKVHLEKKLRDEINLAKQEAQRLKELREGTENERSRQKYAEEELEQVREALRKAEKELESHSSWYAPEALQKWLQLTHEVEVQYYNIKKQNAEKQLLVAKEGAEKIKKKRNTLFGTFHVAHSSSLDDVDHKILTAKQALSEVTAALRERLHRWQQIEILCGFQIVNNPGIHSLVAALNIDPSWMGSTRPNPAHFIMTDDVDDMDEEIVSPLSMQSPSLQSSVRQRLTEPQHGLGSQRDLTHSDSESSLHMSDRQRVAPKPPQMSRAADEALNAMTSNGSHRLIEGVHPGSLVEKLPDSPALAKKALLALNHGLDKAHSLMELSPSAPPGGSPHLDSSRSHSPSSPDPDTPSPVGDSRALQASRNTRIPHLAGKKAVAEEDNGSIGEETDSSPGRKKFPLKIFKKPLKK

Turning to `C=C(C)[C@@H]1CC[C@]2(C(=O)O)CC[C@]3(C)[C@H](CC[C@@H]4[C@@]5(C)C[C@@H](O)[C@H](O)C(C)(C)[C@@H]5CC[C@]43C)[C@@H]12` [compound 1, alphitolic acid], the concentration for half-maximal inhibition (IC50) is 17.5 ± 2.46 µM.
